Legend:
[1] = Physical stability of solid forms (accelerated aging conditions / ambient); format: physicochemical; conditions: 2 days at 40° C./70% RH, HT-XRPD
Method: Long term slurry experiments were performed by suspending compound embodiment 1s in twenty neat solvents and stirring at room temperature for two weeks and at 50° C. for one week. Upon completion of the equilibration time, the residual solids were separated from the mother liquors. The solids were dried under ambient conditions and dried under vacuum (5 mBar) before being analyzed by HT-XRPD. Subsequently, the solids were exposed to accelerated aging conditions (40° C./70% relative humidity) for two days and again analyzed by HT-XRPD.
The mother liquors of the solvent equilibration experiments performed at 50° C. were filtered at 50° C. to remove any particulate matter. The suspensions at 50° C. were filtered using 0.2 μm PTFE filters, and the solutions were placed at 5° C. and aged for 72 hours. When solids had precipitated during aging these solids were separated from the liquid, dried under ambient conditions and under vacuum, and analyzed by HT-XRPD. The remaining mother liquors were allowed to slowly evaporate and the remaining solids were analyzed by HT-XRPD. The samples in which no precipitation occurred were placed under vacuum and the dried solids were analyzed by HT-XRPD. All the solids were then exposed to AAC (2 days at 40° C./70% RH) and re-analyzed by HT-XRPD.
The cooling/evaporative crystallization experiments at μL scale were performed in a 96-well plate, using 12 neat solvents and 12 solvent mixtures and applying four temperature profiles. In each well approximately 4 mg of embodiment 1s was solid dosed. Subsequently, the crystallization solvents (80 μL) and solvent mixtures were added to reach a concentration of 50 mg/mL, and the plate, with each well individually sealed, to subsequently undergo one of the four temperature profiles. Upon completion of the temperature profile the solvents were allowed to evaporate at low ambient pressure (24 hours) and the remaining solids were analyzed by HT-XRPD before and after exposure to AAC for 2 days (40° C./70% RH).
The cooling crystallization experiments with hot filtration were performed from supersaturated solutions of compound Ex. 1 prepared at 50° C. in different solvent mixtures. The hot filtrated solutions underwent a 48-hour cooling profile. The vials in which solids had precipitated after the temperature profile were centrifuged and the solids were separated from the liquid and analyzed by HT-XRPD (after drying under vacuum). If no solids had precipitated the solutions were evaporated under vacuum and the solids analyzed by HT-XRPD. All the solids were exposed to AAC (2 days at 40° C./70% RH) and re-analyzed by HT-XRPD. […] In three experiments, an amorphous residue was recovered which after AAC crystallized to a mixture of members of embodiment 1 (1s or 1a) and 3 (3e) or became deliquescent. […]

[2] = Hygroscopicity (GVS) and static storage of embodiment 11; format: physicochemical
Method: In a hygroscopicity study of embodiment 11, it was found it to be only slightly hygroscopic, with a mass change of 0.66% between 0-90% RH in the GVS analysis as shown in FIG. 18. […] Variable temperature (VT)-XRPD was performed in order to assess the stability of embodiment 11 upon heating. […] The diffractograms of embodiment 11 before and after the VT-XRPD experiment, along with the diffractogram for embodiment 6 are shown in FIG. 24. Embodiment 11 was also subjected to static storage analysis at 40° C./75% RH for up to 48 days. The samples were analyzed by XRPD and Karl Fisher (KF) after 2 days, 5 days and 48 days.

Row | physical stability after accelerated aging conditions (AAC) [1] | physical stability by XRPD on static storage ([2]; 40° C./75% RH for up to 48 days) | mass change in GVS analysis ([2]; between 0-90% RH) | total water uptake (Karl Fisher) ([2]; static storage 40° C./75% RH, after 48 days) | SMILES
1 | converted to embodiment 3e |  |  |  | CC(C)(O)CNC(=O)Cc1nc2cnc3[nH]ccc3c2n1[C@H]1CC[C@H](CC#N)CC1 [embodiment 2, 2-(1-((1r,4r)-4-(Cyanomethyl)cyclohexyl)-1,6-dihydroimidazo[4,5-d]pyrrolo[2,3-b]pyridin-2-yl)-N-(2-hydroxy-2-methylpropyl)acetamide]
2 | physically unstable |  |  |  | CC(C)(O)CNC(=O)Cc1nc2cnc3[nH]ccc3c2n1[C@H]1CC[C@H](CC#N)CC1 [embodiment 5, 2-(1-((1r,4r)-4-(Cyanomethyl)cyclohexyl)-1,6-dihydroimidazo[4,5-d]pyrrolo[2,3-b]pyridin-2-yl)-N-(2-hydroxy-2-methylpropyl)acetamide]
3 | stable solid form |  |  |  | CC(C)(O)CNC(=O)Cc1nc2cnc3[nH]ccc3c2n1[C@H]1CC[C@H](CC#N)CC1 [embodiment 6, 2-(1-((1r,4r)-4-(Cyanomethyl)cyclohexyl)-1,6-dihydroimidazo[4,5-d]pyrrolo[2,3-b]pyridin-2-yl)-N-(2-hydroxy-2-methylpropyl)acetamide]
4 | physically stable |  |  |  | CC(C)(O)CNC(=O)Cc1nc2cnc3[nH]ccc3c2n1[C@H]1CC[C@H](CC#N)CC1 [embodiment 7, 2-(1-((1r,4r)-4-(Cyanomethyl)cyclohexyl)-1,6-dihydroimidazo[4,5-d]pyrrolo[2,3-b]pyridin-2-yl)-N-(2-hydroxy-2-methylpropyl)acetamide]
5 |  | remained unchanged | 0.66% | 1.2% | CC(C)(O)CNC(=O)Cc1nc2cnc3[nH]ccc3c2n1[C@H]1CC[C@H](CC#N)CC1 [embodiment 11, 2-(1-((1r,4r)-4-(Cyanomethyl)cyclohexyl)-1,6-dihydroimidazo[4,5-d]pyrrolo[2,3-b]pyridin-2-yl)-N-(2-hydroxy-2-methylpropyl)acetamide]
